In patent US10242153B2, “Method for determining the risk profile of neoplastic tissue” (NOVAZOI THERANOSTICS, priority 2014, dated 2019):
pIC50: −log10 of the molar value.

Columns and labels:
[1] = tested on: mammary fibrocystic (MCF10A) cells; experiment: Peak subG1 fraction after declustering drugs, non-malignant MCF10A cells; type: cell-based; conditions: for peak subG1 percent compared to controls: MCF10A cells; for Peak subG1 percents over 48 h: MCF10A
Description: (§1) To evaluate the impact of putative declustering drugs on cell cycle progression and hypodiploidy (<2N DNA content, which may indicate apoptotic cells), MDA-MB-231 (231), PC3, and HeLa cells were treated with different concentrations of declustering drugs, stained with propidium iodide, labeled with anti-MPM2 antibody, and then assessed by flow cytometry at multiple time points over 48 hr. […] The duration, highest degree, and rapidity of onset of MA varied between drugs, drug concentrations, and cell lines (data not shown). In general, the maximum MA achieved was less pronounced in Nos- and PJ-treated cells. Drug-induced onset of MA was corroborated by substantial increases in cyclin B1 levels in all cell lines. For most cases, prolonged MA (˜24 hr in duration) was followed by a substantial increase in the subG1 population fraction. […] Instances where the subGl fraction was elevated without cleaved caspase-3 may either represent caspase-independent cell death or the presence of hypodiploid cells whose fate is unclear. In general, no consistent associations between the extent, duration, or timing of MA within drugs or across cell lines was found.
(§2) To determine whether the CA-inducing activity of declustering drugs is restricted to cancer cells, two non-malignant cell lines, mammary fibrocystic (MCF10A) cells and adult human dermal fibroblasts (HDFs) were treated with these drugs. […] In comparison, 10 and 25 µM RBN increased peak CA over controls in interphase cells (p<0.001 and p=0.001, respectively), with the lower concentration dramatically augmenting peak CA to 56% of cells versus 15% for the higher dose (FIG. 13, panel B).
Importantly, a therapeutic window exists for several of these agents at the concentrations and in the cell lines tested compared to cancer cells.

[2] = tested on: adult human dermal fibroblasts (HDFs); experiment: Peak subG1 fraction after declustering drugs, non-malignant HDFs; type: cell-based; conditions: for Peak subG1 percents over 48 h: HDF; for death in cancer cell lines vs. HDFs: both concentrations
Description: as §1, §2
In HDFs, all the drugs tested increased peak subG1 over controls in a significant fashion (p<0.01 for all) (Table 2). […] Thus, it appears that there may be clinically relevant therapeutic windows for these drugs depending on the type of cancer and the drug dosage.

MDA-MB-231 (231) cells = experiment: Peak subG1 fraction by flow cytometry (propidium iodide) after declustering drugs, 231 cells; type: cell-based, human
Description: as §1

PC3 cells = experiment: Peak subG1 fraction by flow cytometry after declustering drugs, PC3 cells; type: cell-based
Description: as §1

MCF10A cells = experiment: Centrosome amplification (CA) by microscopy, MCF10A cells; type: cell-based; conditions: interphase and mitotic MCF10A cells, both concentrations (10 and 25 μM), over 24 h
Description: (§3) Consequently, CA was assessed in cultures treated with different concentrations of declustering drugs for 6, 12, 18, or 24 h and untreated controls via microscopy. Centrosomes were identified by γ-tubulin and centrin-2 colocalization at discrete foci.
as §2

HeLa cells = experiment: Peak subG1 fraction by flow cytometry after declustering drugs, HeLa cells; type: cell-based
Description: as §1

[3] = tested on: ZR-75-30 cells with amplified centrosomes (ZR-A); experiment: Sub-G1 population in ZR-75-30 cells with amplified centrosomes (ZR-A) versus parent cells; type: cell-based; conditions: 25 μM, 48 h
Description: Panel A depicts representative DNA histograms comparing cell-cycle kinetics of ZR-75-30 cells and ZR-A cells treated with bromonoscapine (BN, 25 μM), griseofulvin (GF, 25 μM) or PJ34 (25 μM), respectively for 48 h. […] Panel B depicts a quantitative comparison of sub-G1 population in ZR-75-30 and ZR-A cells upon treatment with the three drugs with the same concentration (25 μM) for the same duration (48 h).
Accordingly, these cells can be pharmacologically manipulated with aphidicolin to generate extra centrosomes. […] Following aphidicolin wash-out, cells were stained using anti-centrin-2 antibodies to verify extra centrosomes by immunofluorescence confocal microscopy. About ˜60% ZR-75-30 cells generated extra centrosomes (6-8 per cell) and were evaluated for their sensitivity to the three drugs, griseofulvin, bromonoscapine, and PJ34, and compared with parent ZR-75-30 cells with normal centrosomes.

[4] = tested on: adult human dermal fibroblasts (HDFs); experiment: Centrosome amplification (CA) by microscopy, HDFs; type: cell-based; conditions: HDFs, any of the concentrations or time points assessed
Description: as §3, §2

231 cells = experiment: Centrosome amplification (CA) by microscopy (γ-tubulin/centrin-2 foci), 231 cells; type: cell-based, human; conditions: 231 cells, 25 μM
Description: Consequently, CA was assessed in cultures treated with different concentrations of declustering drugs for 6, 12, 18, or 24 h and untreated controls via microscopy. Centrosomes were identified by γ-tubulin and centrin-2 colocalization at discrete foci. […] The peak percent CA detected over 24 h is shown in FIG. 13 (only statistically significant (P<0.05) increases over control values are represented in the Figures). To better understand the “potency” of drug-induced CA with time, the average fold change in CA over controls over 24 h was assessed (FIG. 12, panel A), whereby the extent of CA across time points (i.e., 6, 12, 18, and 24 hr) was averaged and then divided by the extent of CA in control (i.e., 0 hr). All of the drugs at least doubled the peak extent of CA in all cell lines tested (FIG. 12, panel A), although the final extent of CA could be small or large in magnitude depending on the initial centrosomal burden as shown in FIG. 11. […] The peak extent in interphase HeLa cells was somewhat less at 30.7% and 48.1% for 10 and 25 μM RBN, respectively (FIG. 13, panel A). For Nos and BN, there was no major difference in CA levels in interphase versus mitotic cells.

[5] = tested on: PLK4, Cyclin E, and Aurora A; experiment: Western blotting of markers of centrosome amplification; type: cell-based; conditions: 231 cells, 25 μM
N1E-115 cells [6] = experiment: Interphase declustering index (DI) in N1E-115 cells; type: cell-based, murine; conditions: 6-h treatment, 25 interphase cells, drugs at their respective IC50 concentrations
Description: To evaluate their effect on interphase clustering, N1E-115 cells were treated with these drugs at their respective IC50 concentrations for 0, 3, 6 and 9 h and co-immunostained for γ-tubulin and α-tubulin to evaluate centrosomal spread and microtubule nucleation status, respectively.
Cell cycle phases were further evaluated via lamin A/C immunostaining to distinguish interphase declustering events from prophase centrosomal spread. To quantitate the spread of the interphase centrosomal cluster, a 3D reconstruction of z-stack images of 25 randomly-selected interphase cells from the 6-h treatment group of each drug were generated. By defining an ROI (region of interest) around the interphase centrosomal cluster, the volume of the cluster spread was calculated using Volocity software. Likewise, defining an ROI using the cell periphery provided the cell volume.

N1E-115 cells [7] = experiment: Vinculin localization in serum-starved N1E-115 cells; type: cell-based, murine; conditions: serum-starved (SS) cells
From the text: Vinculin stabilizes cell-substrate contacts in neuronal cells undergoing neuritogenesis, while activation by actin-binding proteins mobilizes vinculin to focal adhesions. To determine the localization of vinculin in the neurite extensions and the effect of declustering agents on its localization, N1E-115 cells were immunostained cells for vinculin and stained F-actin using rhodamine-phalloidin.

N1E-115 cells [8] = experiment: Neuritogenesis (neurite extension) in serum-starved N1E-115 cells; type: cell-based, murine; conditions: 48 h, PJ-34 10 μM, Paclitaxel 0.05 μM
Description: N1E-115 cells grown in serum-starved (SS) medium were evaluated to determine the extent of neurite formation after 48 h of treatment with RedBr-Nos (5 μM), Griseofulvin (10 μM), PJ-34 (10 μM), Paclitaxel (0.05 μM) treatment or untreated control cells (i.e., serum-starved medium (SS) alone). Panels Ai and Aii depict quantitative bar graphs representing the average length of neurites and percentage of population of cells showing neurite length >10 μm, respectively. A hundred cells were counted in each case. […] Panel B depicts an immunoblot showing CLASP1 expression levels in control (C) and CLASP1 siRNA-transfected N1E-115 cells.
Neuritogenesis is a process in nerve cells involving the extension of polarized, elongated neurites. N1E-115 cells usually extend only one major neurite per cell, which can vary in length from 5 to 500 μm. The growth cones of the neurites serve as primary focal points of motility. The effect of declustering agents on cell motility was evaluated by assessing the length and frequency of neurites formed in a serum-free medium on a laminin-coated surface.

N1E-115 cells [9] = experiment: Golgi (GM130) and γ-tubulin co-immunostaining of drug-treated N1E-115 cells; type: cell-based, murine; conditions: data not shown
From the text: The Golgi, which is primarily responsible for posttranslational modification and protein sorting, also functions as a microtubule-organizing center (MTOC). It has been hypothesized that supernumerary centrosomes may better organize the Golgi to enhance directional cell migration. To investigate what happens to the Golgi upon declustering drug-induced dispersal of the interphase centrosomal cluster, drug-treated N1E-115 cells were co-immunostained with GM130 (a cis-Golgi matrix protein crucial for maintaining its structure) and γ-tubulin.

N1E-115 cells [10] = experiment: Drug sensitivity (IC50) of N1E-115 cells; type: cell-based, murine; conditions: Mus musculus; N1E-115 cells (data not shown)

| SMILES | peak subG1 percent compared to controls [1] | Peak subG1 percents over 48 h ([1]; 10 μM) [%] | Peak subG1 percents over 48 h ([1]; 25 μM) [%] | Peak subG1 percents over 48 h ([2]; 10 μM) [%] | Peak subG1 percents over 48 h ([2]; 25 μM) [%] | death in cancer cell lines vs. HDFs [2] | Peak subG1 percents over 48 h (MDA-MB-231 (231) cells; 10 μM) [%] | Peak subG1 percents over 48 h (MDA-MB-231 (231) cells; 25 μM) [%] | Peak subG1 percents over 48 h (PC3 cells; 10 μM) [%] | Peak subG1 percents over 48 h (PC3 cells; 25 μM) [%] | CA / peak extent of CA versus control levels (MCF10A cells) | Peak subG1 percents over 48 h (HeLa cells; 10 μM) [%] | Peak subG1 percents over 48 h (HeLa cells; 25 μM) [%] | extent of CA over controls [4] | other results |
| --- | --- | --- | --- | --- | --- | --- | --- | --- | --- | --- | --- | --- | --- | --- | --- |
| COc1ccc2c(c1OC)C(=O)O[C@@H]2[C@H]1c2c(c(Br)c3c(c2OC)OCO3)CCN1C [BN, bromonoscapine] | did not cause a significant increase | 3.5 | 3.0 | 16.5 | 20.4 | the same was true for 231 and PC3 cells | 32.5 | 65.2 | 46.0 | 42.8 | neither concentrations of Nos or BN significantly increased CA over control levels | 42.0 | 54.9 | did not significantly increase the extent of CA over controls | maximum (peak) subG1 fraction relative to control (MDA-MB-231 (231) cells; 25 μM): 9.3 × control; maximum (peak) subG1 fraction relative to control (PC3 cells; 25 μM): 9.2 × control; maximum (peak) subG1 fraction relative to control (HeLa cells; 25 μM): 4.4 × control; sub-G1 population versus parent ZR-75-30 cells [3]: much higher sub-G1 population compared to parent ZR-75-30 cells |
| COc1ccc2c(c1OC)C(=O)O[C@@H]2[C@H]1c2c(cc3c(c2OC)OCO3)CCN1C [Nos, noscapine] | did not cause a significant increase | 4.1 | 4.2 | 14.8 | 11.2 | more death in all cancer cell lines vs. HDFs | 26.3 | 43.9 | 29.9 | 32.7 | neither concentrations of Nos or BN significantly increased CA over control levels | 25.0 | 50.1 | did not significantly increase the extent of CA over controls | induction of CA (231 cells): failed to induce significant CA; expression levels of Cyclin E and PLK4 [5]: surge in the expression levels of Cyclin E and PLK4 |
| CC(=O)O[C@H]1C(=O)[C@@]2(C)[C@H]([C@H](OC(=O)c3ccccc3)[C@]3(O)C[C@H](OC(=O)[C@H](O)[C@@H](NC(=O)c4ccccc4)c4ccccc4)C(C)=C1C3(C)C)[C@]1(OC(C)=O)CO[C@@H]1C[C@@H]2O [Paclitaxel, paclitaxel] |  |  |  |  |  |  |  |  |  |  |  |  |  |  | interphase declustering index (DI): ratio of average cluster volume to average cell volume (N1E-115 cells [6]): 0.08; vinculin localization and focal adhesion points (N1E-115 cells [7]): less severe; inhibition of neurite extension (N1E-115 cells [8]): moderate inhibition; fragmentation of the interphase Golgi complex (N1E-115 cells [9]): interphase Golgi complex fragmented; pIC50 (N1E-115 cells [10]): 7.30 |
